In patent US20230103631A1, “PEPTIDES AS SELECTIVE GIP RECEPTOR AGONISTS” (Sanofi, priority 2020, published 2023):
*1 amine or outer side, *2 acyl side, *3 side chain or, on linkers, in order; H or OH if unused. Where a SMILES comes first, the peptide text is derived from it. Side-chain parts run from the residue outwards. [ ]: non-standard residue; d: D form. The star is where a group is joined. C18 diacid = O=C(O)CCCCCCCCCCCCCCCCC(=O)*; γGlu = O=C(O)[C@H](CCC(=O)[*:2])N[*:1]; AEEA = NCCOCCOCC(=O)O; Aib = CC(C)(N)C(=O)O

Assays:
Assay type in all cases: in vivo
[1] = Pharmacokinetic evaluation in mice; conditions: female, C57Bl/6, mouse, plasma
Experimental: (§1) Compounds were administered in a suitable buffer system, e.g. PBS buffer solution at pH7.4 or DPBS solution at concentrations of 0.05, 0.1, 0.5 or 1 mg/ml depending on dose, species and administration volume.
Female C57Bl/6 mice were dosed 0.25 mg/kg, 0.5 mg/kg or 1 mg/kg intravenously (i.v.) or subcutaneously (s.c.). The mice were sacrificed, and blood samples were collected after 0.08, 0.25, 0.5, 1, 2, 4, 8, 24, 32, and 48 h post i.v. application and 0.25, 0.5, 1, 2, 4, 8, 24, 32, and 48 h post s.c. application, respectively. Plasma samples were analyzed after protein precipitation via liquid chromatography mass spectrometry (LC/MS). PK parameters and half-life were calculated using Phoenix-WinNonlin 8.1 using a non-compartmental model and linear trapezoidal interpolation calculation.
(§2) Pharmacokinetic profiles were determined as described in Methods.

[2] = Pharmacokinetic evaluation in monkeys; conditions: male, cynomolgus monkey, plasma
Experimental: as §1
Male cynomolgus monkeys were dosed 0.1 mg/kg intravenously (i.v.) or subcutaneously (s.c.). Blood samples were collected after 0.083, 0.25, 0.5, 1, 2, 4, 8, 24, 32, 48, and 72 h post i.v. application and 0.5, 1, 2, 4, 8, 24, 48, 72, and 96 h post s.c. application, respectively. Plasma samples were analyzed after protein precipitation via liquid chromatography mass spectrometry (LC/MS). PK parameters and half-life were calculated using Phoenix-WinNonlin 8.1 using a non-compartmental model and linear trapezoidal interpolation calculation.
as §2

[3] = test system: C57Bl/6 mice; experiment: Intraperitoneal glucose tolerance test (ipGTT) after s.c. treatment; conditions: for Incremental blood glucose concentration AUCi / Blood glucose concentration AUC: mean ± SEM; for Incremental blood glucose concentration AUCi: vehicle +4.93 ± 0.324; for Blood glucose concentration AUC: vehicle +22.15 ± 0.662
Experimental: Healthy, normoglycemic male C57Bl/6NCrl mice were ordered in an age of 9-10 weeks with an approximate body weight (BW) of 24-26 g at Charles River Laboratories Deutschland GmbH, 97633 Sulzfeld, Germany. Mice were shipped grouped housed (N=4 per cage), acclimatized for one week and remained grouped housed throughout the entire study. Mice were housed under vivarium conditions that included a 12 h light/dark cycle (light phase 06:00 AM-06:00 PM), mean room temperature of 22±2° C. and a relative mean humidity of 55±10%. All animals had free access to food (Ssniff R/M-H diet) and water prior to study start.
The primary objective of the study was to investigate the compound-induced lowering of the blood glucose excursion and improvement of glucose tolerance in a mouse ipGTT setting and therefore the primary parameters included blood glucose, delta blood glucose (normalized to the time point just prior to the i.p. glucose challenge, t=0 h) and their respective calculated area under curve (AUC) values. The study was performed as an acute, single dosing study with 6 groups and the male animals were randomly divided to groups of 7-8 mice per group. Dose-dependent pharmacodynamic blood glucose lowering efficacy of the GIPR agonist was analyzed with s.c. injections 6 h before the i.p. glucose load in the dose range from 3 up to 100 nmol/kg and compared to the vehicle group as well as the semaglutide positive control at a dose of 10 nmol/kg.
In more detail, mice were fed overnight and on the following morning brought to the lab with food removed but ad libitum access to water. Blood samplings (5 μl) were performed at: −6.5, −0.5, 0, 0.17, 0.5, 1, 1.5, 2 and 3 h before and after the glucose bolus of 1 g glucose per kg BW i.p. given at time point t=0 h. On time point t=0.17 h an additional K-EDTA plasma sample from 60-80 μl blood was taken for plasma insulin analysis. Blood was withdrawn from the tip of the tail. The GIPR agonist and semaglutide were dissolved in 10 mM phosphate buffer pH 7.4 with 2.3% glycerol and 0.01% polysorbat 20 (vehicle) and s.c. treatment was performed −6 h before the glucose load (t=0 h) using an injection volume of 5 ml/kg. The injection solutions were freshly prepared prior to the experiment using sterile filtered vehicle solution.
Blood glucose was determined enzymatically (Gluco-quant® Glucose/HK kit on Roche/Hitachi 912). Plasma insulin was determined using a mouse/rat insulin sandwich immunoassay kit from Meso Scale Discovery.
All data were collected using Microsoft Excel. None of the data were collected online. The results are expressed as means±standard error of the mean (SEM). As primary study parameters, blood glucose, baseline (time point t=0 h) subtracted delta blood glucose and their respective calculated area under curve (AUC) values were determined. The respective AUC data were calculated using the trapezoid rule for the time period t=0 h until t=2 h.
The statistical analysis of the ipGTT blood glucose excursion data response following subcutaneous compound or vehicle treatment was performed on the calculated AUC values of blood glucose raw data as well as the calculated AUC values for baseline subtracted delta blood glucose data. In a first step the Levene's test was used to test for equality of variances between groups. Where Levene's test was significant (p s 0.05), a rank transformation of the calculated AUC data was applied to stabilize the variances before ANOVA analysis was conducted. Where Levene's test was not significant (p>0.05) ANOVA was conducted without prior rank transformation. In a second step a One-way ANOVA analysis for factor treatment followed by Dunnett's multiple comparisons test vs. vehicle group was used to test for statistical differences. Different levels of significance were defined as *=p<0.05, **=p<0.001, ***=p<0.0001. All analyses were performed using SAS (version 9.4) under Linux via the interface software EverSt@t V6.1. […]

[4] = 3 nmol/kg s.c. 6 h before i.p. glucose load
[5] = 10 nmol/kg s.c. 6 h before i.p. glucose load
[6] = 30 nmol/kg s.c. 6 h before i.p. glucose load
[7] = 100 nmol/kg s.c. 6 h before i.p. glucose load

Which AUC(0-t) ([1]; iv, 0.25 mg/kg i.v.) does the source give for `CC[C@H](C)[C@H](NC(=O)[C@H](Cc1ccccc1)NC(=O)[C@H](CCC(=O)O)NC(=O)[C@H](CCC(=O)O)NC(=O)[C@H](CCC(N)=O)NC(=O)[C@H](Cc1c[nH]cn1)NC(=O)[C@@H](NC(=O)[C@H](CCCNC(=N)N)NC(=O)[C@H](CC(=O)O)NC(=O)[C@H](CCCCNC(=O)COCCOCCNC(=O)COCCOCCNC(=O)CC[C@H](NC(=O)CCCCCCCCCCCCCCCCC(=O)O)C(=O)O)NC(=O)C(C)(C)NC(=O)[C@@H](NC(=O)[C@H](CO)NC(=O)[C@H](CC(C)C)NC(=O)[C@H](CC(=O)O)NC(=O)[C@H](CO)NC(=O)[C@@H](NC(=O)[C@H](Cc1ccccc1)NC(=O)[C@@H](NC(=O)CNC(=O)[C@H](CCC(=O)O)NC(=O)C(C)(C)NC(=O)[C@@H](N)Cc1ccc(O)cc1)[C@@H](C)O)[C@@H](C)CC)[C@@H](C)CC)[C@@H](C)CC)C(=O)N[C@@H](CCC(=O)O)C(=O)N[C@@H](Cc1c[nH]c2ccccc12)C(=O)N[C@@H](CC(C)C)C(=O)N[C@@H](CC(C)C)C(=O)N[C@@H](C)C(=O)N[C@@H](CCC(N)=O)C(=O)NCC(=O)N1CCC[C@H]1C(=O)N[C@@H](CO)C(=O)N[C@@H](CO)C(=O)NCC(=O)N[C@@H](C)C(=O)N1CCC[C@H]1C(=O)N1CCC[C@H]1C(=O)N1CCC[C@H]1C(=O)N[C@@H](CO)C(N)=O` [SEQ ID NO: 9, H2N-Y-Aib-E-G-T-F-I-S-D-I-S-I-Aib-K[{AEEA}2-gGlu-C18OH]-DRIHQEEFIEWILAQGPSSGAPPPS-NH2] (H-Y[Aib]EGTFISDLSI[Aib]K([AEEA-AEEA-γGlu-C18 diacid])DRIHQEEFIEWLLAQGPSSGAPPPS-NH2) here?
The AUC(0-t) was 25700 ng·h/mL.

And the Cmax ([1]; iv, 0.25 mg/kg i.v.)?
The Cmax was 3920 ng/mL.

And the half-life ([1]; iv, 0.25 mg/kg i.v.)?
Its half-life is 8 h.

What about the clearance ([1]; iv, 0.25 mg/kg i.v., read-out: CI (converted)) of the same compound?
Its clearance is 9.59 mL/h/kg.

What about the AUC(0-t) ([1]; sc, 0.5 mg/kg s.c.) of the same compound?
The AUC(0-t) was 42200 ng·h/mL.

And the Cmax ([1]; sc, 0.5 mg/kg s.c.)?
The Cmax was 2190 ng/mL.

What about the bioavailability ([1]; sc, 0.5 mg/kg s.c.) of the same compound?
The bioavailability was 82%.

And the half-life ([1]; sc, 0.5 mg/kg s.c.)?
The half-life was 7.3 h.

What about the AUC(0-t) ([2]; iv, 0.1 mg/kg i.v.) of the same compound?
Its AUC(0-t) is 149000 ng·h/mL.

And the Cmax ([2]; iv, 0.1 mg/kg i.v.)?
The Cmax was 6740 ng/mL.

And the half-life ([2]; iv, 0.1 mg/kg i.v.)?
The half-life was 51.4 h.

And the clearance ([2]; iv, 0.1 mg/kg i.v., read-out: CI (converted))?
The clearance was 0.445 mL/h/kg.

What about the AUC(0-t) ([2]; sc, 0.1 mg/kg s.c.) of the same compound?
The AUC(0-t) was 122000 ng·h/mL.

What about the Cmax ([2]; sc, 0.1 mg/kg s.c.) of the same compound?
The Cmax was 1800 ng/mL.

What about the bioavailability ([2]; sc, 0.1 mg/kg s.c.) of the same compound?
Its bioavailability is 83%.

And the half-life ([2]; sc, 0.1 mg/kg s.c.)?
Its half-life is 58.4 h.

What about the “Incremental blood glucose concentration AUCi” value [3, 4] of the same compound?
Its value is “+3.41 ± 0.520 mmol/L* 0-2 h”.

What about the “Blood glucose concentration AUC” value [3, 4] of the same compound?
Its value is “+21.07 ± 0.544 mmol/L* 0-2 h”.

And the “Incremental blood glucose concentration AUCi” value [3, 5]?
The value was “+3.33 ± 0.210 mmol/L* 0-2 h”.

And the “Blood glucose concentration AUC” value [3, 5]?
Its value is “+19.28 ± 0.518 mmol/L* 0-2 h”.

What about the “Incremental blood glucose concentration AUCi” value [3, 6] of the same compound?
Its value is “+2.76 ± 0.268 mmol/L* 0-2 h”.

And the “Blood glucose concentration AUC” value [3, 6]?
Its value is “+18.20 ± 0.662 mmol/L* 0-2 h”.

What about the “Incremental blood glucose concentration AUCi” value [3, 7] of the same compound?
Its value is “+1.90 ± 0.158 mmol/L* 0-2 h”.

And the “Blood glucose concentration AUC” value [3, 7]?
Its value is “+14.81 ± 0.533 mmol/L* 0-2 h”.

What about the “i.p. glucose tolerance compared to the vehicle group” value ([3]; single s.c. dose 3-100 nmol/kg, ipGTT in C57Bl/6 mice) of the same compound?
Its value is “significant and dose-dependent improvement”.

And the “minimal effective dose (improvement of i.p. glucose tolerance)” value ([3]; single s.c. dose, ipGTT in C57Bl/6 mice)?
The value was 3 to 10 nmol/kg.
